Reference: the supplement of paper PMC10307832

Tests used:
Test in all cases: relative viability (nuclei count vs DMSO), 5 days (fraction); higher = more cells survive
[1] = compound: CC(C)C[C@H](NC(=O)[C@H](Cc1ccccc1)NC(=O)c1cnccn1)B(O)O [Bortezomib] + CS(=O)(=O)CCNCc1ccc(-c2ccc3ncnc(Nc4ccc(OCc5cccc(F)c5)c(Cl)c4)c3c2)o1 [Lapatinib] (partner 2 µM)
Method in brief: (§1)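 After 5 days of treatment, lung cancer cells in 1536-well plates were fixed and stained in a single step (final 0.05% Triton X-100, 1% formaldehyde, 1 ug/ml Hoechst) and their nuclei counted on 4× images. Treatment had been applied by pin tool the day after seeding as one drug alone or as a fixed anchor-drug dose with five library-drug doses (not always all listed) in √10 steps. Relative viability is the nuclei count of treated wells divided by that of vehicle wells, and values are medians of duplicate plates.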

[2] = compound: CC1=CC(=NN1)NC2=CC(=NC(=N2)/C=C/C3=CC=CC=C3)N4CCN(CC4)C + CS(=O)(=O)CCNCc1ccc(-c2ccc3ncnc(Nc4ccc(OCc5cccc(F)c5)c(Cl)c4)c3c2)o1 [Lapatinib] (partner 2 µM)
Method in brief: as §1

[3] = compound: COC1=CC(c2cc3ccccc3[nH]2)=N/C1=C\c1[nH]c(C)cc1C [Obatoclax] + CCNC(=O)c1noc(-c2cc(C(C)C)c(O)cc2O)c1-c1ccc(CN2CCOCC2)cc1 [Luminespib] (partner 0.01 µM)
Method in brief: as §1

[4] = compound: COC1=CC(c2cc3ccccc3[nH]2)=N/C1=C\c1[nH]c(C)cc1C [Obatoclax] + COc1cccc2cc(-c3nc([C@H]4CC[C@H](C(=O)O)CC4)n4ncnc(N)c34)[nH]c12 [OSI-027] (partner 0.5 µM)
Method in brief: as §1

| Cell Line | relative viability ([1]; first compound 0.0002 µM) | relative viability ([1]; first compound 0.000632 µM) | relative viability ([1]; first compound 0.002 µM) | relative viability ([1]; first compound 0.006325 µM) | relative viability ([1]; first compound 0.02 µM) | relative viability ([2]; first compound 0.08 µM) | relative viability ([2]; first compound 0.253 µM) | relative viability ([2]; first compound 0.8 µM) | relative viability ([2]; first compound 2.53 µM) | relative viability ([2]; first compound 8 µM) | relative viability ([3]; first compound 0.01 µM) | relative viability ([3]; first compound 0.03162 µM) | relative viability ([3]; first compound 0.1 µM) | relative viability ([3]; first compound 0.3162 µM) | relative viability ([3]; first compound 1 µM) | relative viability ([4]; first compound 0.01 µM) | relative viability ([4]; first compound 0.03162 µM) | relative viability ([4]; first compound 0.1 µM) | relative viability ([4]; first compound 0.3162 µM) | relative viability ([4]; first compound 1 µM) |
| --- | --- | --- | --- | --- | --- | --- | --- | --- | --- | --- | --- | --- | --- | --- | --- | --- | --- | --- | --- | --- |
| COR-L 105 | 0.358 | 0.354 | 0.334 | 0.344 | 0.349 | 0.335 | 0.341 | 0.338 | 0.23 | 0.223 | 0.97 | 0.908 | 0.724 | 1.75 | 0.236 | 0.741 | 0.906 | 0.803 | 0.518 | 0.301 |
| EKVX | 0.205 | 0.261 | 0.208 | 0.204 | 0.0816 | 0.191 | 0.216 | 0.226 | 0.136 | 0.0912 | 0.899 | 0.954 | 0.979 | 0.67 | 0.728 | 0.708 | 0.74 | 0.797 | 0.561 | 0.667 |
| EMC-BAC-2 | 0.902 | 0.923 | 0.966 | 0.652 | 0.153 | 0.905 | 0.923 | 0.811 | 0.689 | 0.136 | 1.2 | 1.19 | 1.16 | 1.08 | 1.02 | 0.413 | 0.382 | 0.297 | 0.332 | 0.299 |
| EPLC-272H | – | – | 1.03 | 0.671 | 0.167 | 0.893 | 0.99 | 0.868 | 0.462 | 0.157 | 0.377 | 0.235 | 0.393 | 0.189 | 0.168 | 0.277 | 0.279 | 0.333 | 0.247 | 0.203 |
| H3255 | 0.261 | 0.209 | 0.24 | 0.191 | 0.179 | 0.244 | 0.211 | 0.478 | 0.203 | 0.123 | 0.903 | 0.823 | 0.899 | 0.88 | 0.806 | 0.584 | 0.591 | 0.751 | 0.617 | 0.666 |
| HARA | 0.647 | 0.527 | 0.73 | 0.0694 | 0.0797 | 0.776 | 0.874 | 0.611 | 0.163 | 0.158 | 0.889 | 0.827 | 0.728 | 0.692 | 1.05 | 0.456 | 0.555 | 0.444 | 0.438 | 0.168 |
| HCC-15 | 0.824 | 0.943 | 0.817 | 0.38 | 0.0867 | 0.867 | 0.856 | 0.835 | 0.319 | 0.167 | 0.302 | 0.148 | 0.267 | 0.361 | 0.274 | 0.745 | 0.641 | 0.446 | 0.662 | 0.447 |
| HCC-44 | 0.977 | 1.02 | 0.953 | 0.658 | 0.118 | 1.02 | 1.07 | 0.955 | 0.85 | 0.101 | 1.07 | 0.992 | 0.658 | 0.65 | 0.167 | 0.577 | 0.422 | 0.219 | 0.441 | 0.333 |
| HCC-827 | 0.217 | 0.183 | 0.187 | 0.222 | 0.15 | 0.201 | 0.168 | 0.212 | 0.146 | 0.124 | 0.676 | 0.575 | 0.6 | 0.706 | 0.76 | 0.846 | 0.733 | 0.806 | 0.675 | 0.778 |
| HOP-62 | 0.953 | 1.01 | 1.04 | 0.283 | 0.0578 | 1.06 | 0.973 | 0.956 | 0.558 | 0.307 | 0.854 | 0.815 | 0.846 | 0.88 | 0.926 | 0.858 | 0.848 | 0.754 | 0.819 | 0.583 |
| LC-2-ad | 0.73 | – | 0.928 | 0.258 | 0.1 | 0.701 | 0.928 | 0.899 | 0.0949 | 0.0594 | 0.984 | 0.914 | 0.773 | 0.733 | 0.361 | 0.838 | 0.838 | 0.529 | 0.724 | 0.655 |
| LCLC-97TM1 | 0.651 | 0.701 | 0.749 | 0.248 | 0.118 | 1.29 | 1.06 | 0.922 | 0.158 | 0.0857 | 0.734 | 0.563 | 0.788 | 0.761 | 0.532 | 0.606 | 0.553 | 0.693 | 0.347 | 0.52 |
| LK-2 | 0.804 | 0.922 | 0.498 | 0.204 | 0.232 | 0.885 | 0.852 | 0.852 | 0.604 | 0.181 | 0.183 | 0.23 | 0.231 | 0.189 | 0.164 | 0.261 | 0.214 | 0.225 | 0.256 | 0.192 |
| LOU-NH91 | 0.795 | 0.704 | 0.454 | 0.334 | 0.287 | 0.669 | 0.785 | 0.698 | 0.567 | 0.333 | 0.351 | 0.367 | 0.345 | 0.265 | 0.294 | 0.727 | 0.719 | 0.566 | 0.714 | 0.683 |
| LU99A | 0.939 | – | 1.11 | 0.811 | 0.171 | 0.958 | 0.943 | 0.728 | 0.252 | 0.125 | 0.268 | 0.243 | 0.259 | 0.229 | 0.246 | 0.291 | 0.282 | 0.267 | 0.312 | 0.298 |
| LXF-289 | 0.908 | 0.871 | 0.949 | 0.115 | 0.104 | 0.918 | 0.969 | 0.839 | 0.487 | 0.574 | 0.707 | 0.649 | 0.594 | 0.619 | 0.662 | 0.78 | 0.77 | 0.68 | 0.765 | 0.691 |
